Source: the supplement of paper PMC10307832

What was measured:
Experiment in all cases: relative viability (nuclei count vs DMSO), 5 days (fraction); higher = more cells survive
ChaGo-K-1 = tested on: ChaGo-K-1
Method in brief: (§1)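 Dosing by pin tool came one day after lung cancer cell lines were seeded in 1536-well plates, using either one drug or a fixed anchor-drug dose plus five library-drug doses (not always all listed) in √10 steps. After 5 days, nuclei were counted on 4× images. Relative viability is treated-well nuclei count divided by vehicle-well nuclei count, and values are medians of duplicate plates.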

EMC-BAC-2 = tested on: EMC-BAC-2
Method in brief: as §1

EPLC-272H = tested on: EPLC-272H
Method in brief: as §1

HCC-366 = tested on: HCC-366
Method in brief: as §1

HCC-44 = tested on: HCC-44
Method in brief: as §1

HCC-78 = tested on: HCC-78
Method in brief: as §1

HCC-827 = tested on: HCC-827
Method in brief: as §1

LCLC-103H = tested on: LCLC-103H
Method in brief: as §1

LOU-NH91 = tested on: LOU-NH91
Method in brief: as §1

LU99A = tested on: LU99A
Method in brief: as §1

LXF-289 = tested on: LXF-289
Method in brief: as §1

NCI-H1563 = tested on: NCI-H1563
Method in brief: as §1

NCI-H1666 = tested on: NCI-H1666
Method in brief: as §1

NCI-H1975 = tested on: NCI-H1975
Method in brief: as §1

NCI-H2085 = tested on: NCI-H2085
Method in brief: as §1

NCI-H2126 = tested on: NCI-H2126
Method in brief: as §1

NCI-H23 = tested on: NCI-H23
Method in brief: as §1

NCI-H2405 = tested on: NCI-H2405
Method in brief: as §1

NCI-H3122 = tested on: NCI-H3122
Method in brief: as §1

RERF-LC-KJ = tested on: RERF-LC-KJ
Method in brief: as §1

SK-LU-1 = tested on: SK-LU-1
Method in brief: as §1

SW 1573 = tested on: SW 1573
Method in brief: as §1

Which relative viability (ChaGo-K-1; first compound 0.04 µM) does the source give for `Clc1ccc(Nc2nnc(Cc3ccncc3)c3ccccc23)cc1` [Vatalanib] + CC(C)C[C@H](NC(=O)[C@H](Cc1ccccc1)NC(=O)c1cnccn1)B(O)O [Bortezomib] (partner 0.002 µM) here?
Its relative viability is 0.936.

What about the relative viability (ChaGo-K-1; first compound 0.1265 µM) of the same compound?
Its relative viability is 0.938.

What about the relative viability (ChaGo-K-1; first compound 1.265 µM) of the same compound?
The relative viability was 0.991.

And the relative viability (ChaGo-K-1; first compound 4 µM)?
The relative viability was 1.03.

What about the relative viability (EMC-BAC-2; first compound 0.04 µM) of the same compound?
The relative viability was 1.04.

And the relative viability (EMC-BAC-2; first compound 0.1265 µM)?
Its relative viability is 1.09.

And the relative viability (EMC-BAC-2; first compound 0.4 µM)?
Its relative viability is 1.12.

And the relative viability (EMC-BAC-2; first compound 1.265 µM)?
The relative viability was 1.01.

And the relative viability (EMC-BAC-2; first compound 4 µM)?
The relative viability was 1.05.

What about the relative viability (EPLC-272H; first compound 0.04 µM) of the same compound?
The relative viability was 1.08.

What about the relative viability (EPLC-272H; first compound 0.1265 µM) of the same compound?
Its relative viability is 0.93.

And the relative viability (EPLC-272H; first compound 0.4 µM)?
The relative viability was 0.843.

And the relative viability (EPLC-272H; first compound 1.265 µM)?
The relative viability was 0.971.

And the relative viability (EPLC-272H; first compound 4 µM)?
Its relative viability is 0.982.

What about the relative viability (HCC-366; first compound 0.04 µM) of the same compound?
The relative viability was 1.09.

What about the relative viability (HCC-366; first compound 0.1265 µM) of the same compound?
Its relative viability is 0.924.

What about the relative viability (HCC-366; first compound 0.4 µM) of the same compound?
The relative viability was 1.03.

And the relative viability (HCC-366; first compound 1.265 µM)?
Its relative viability is 1.06.

What about the relative viability (HCC-366; first compound 4 µM) of the same compound?
Its relative viability is 1.05.

And the relative viability (HCC-44; first compound 0.04 µM)?
The relative viability was 0.92.

And the relative viability (HCC-44; first compound 0.1265 µM)?
Its relative viability is 0.855.

What about the relative viability (HCC-44; first compound 0.4 µM) of the same compound?
The relative viability was 0.903.

What about the relative viability (HCC-44; first compound 1.265 µM) of the same compound?
The relative viability was 0.828.

What about the relative viability (HCC-44; first compound 4 µM) of the same compound?
Its relative viability is 0.857.

What about the relative viability (HCC-78; first compound 0.04 µM) of the same compound?
Its relative viability is 0.391.

And the relative viability (HCC-78; first compound 0.1265 µM)?
Its relative viability is 0.493.

What about the relative viability (HCC-78; first compound 0.4 µM) of the same compound?
The relative viability was 0.474.

What about the relative viability (HCC-78; first compound 1.265 µM) of the same compound?
The relative viability was 0.495.

And the relative viability (HCC-78; first compound 4 µM)?
Its relative viability is 0.571.

And the relative viability (HCC-827; first compound 0.04 µM)?
Its relative viability is 1.04.

And the relative viability (HCC-827; first compound 0.1265 µM)?
The relative viability was 0.877.

What about the relative viability (HCC-827; first compound 0.4 µM) of the same compound?
The relative viability was 1.05.

And the relative viability (HCC-827; first compound 1.265 µM)?
Its relative viability is 1.12.

And the relative viability (HCC-827; first compound 4 µM)?
The relative viability was 1.03.

What about the relative viability (LCLC-103H; first compound 0.04 µM) of the same compound?
The relative viability was 1.07.

What about the relative viability (LCLC-103H; first compound 0.1265 µM) of the same compound?
The relative viability was 1.12.

What about the relative viability (LCLC-103H; first compound 0.4 µM) of the same compound?
The relative viability was 1.07.

And the relative viability (LCLC-103H; first compound 1.265 µM)?
The relative viability was 1.01.

What about the relative viability (LCLC-103H; first compound 4 µM) of the same compound?
The relative viability was 1.13.

And the relative viability (LOU-NH91; first compound 0.04 µM)?
The relative viability was 0.491.

What about the relative viability (LOU-NH91; first compound 0.1265 µM) of the same compound?
The relative viability was 0.43.

And the relative viability (LOU-NH91; first compound 0.4 µM)?
Its relative viability is 0.464.

And the relative viability (LOU-NH91; first compound 1.265 µM)?
The relative viability was 0.493.

And the relative viability (LOU-NH91; first compound 4 µM)?
The relative viability was 0.468.

And the relative viability (LU99A; first compound 0.04 µM)?
Its relative viability is 1.19.

What about the relative viability (LU99A; first compound 0.1265 µM) of the same compound?
Its relative viability is 1.16.

What about the relative viability (LU99A; first compound 0.4 µM) of the same compound?
Its relative viability is 1.27.

What about the relative viability (LU99A; first compound 1.265 µM) of the same compound?
Its relative viability is 1.22.

And the relative viability (LU99A; first compound 4 µM)?
Its relative viability is 1.19.

And the relative viability (LXF-289; first compound 0.04 µM)?
Its relative viability is 1.07.

And the relative viability (LXF-289; first compound 0.1265 µM)?
The relative viability was 0.976.

What about the relative viability (LXF-289; first compound 0.4 µM) of the same compound?
The relative viability was 0.991.

And the relative viability (LXF-289; first compound 1.265 µM)?
Its relative viability is 0.931.

And the relative viability (LXF-289; first compound 4 µM)?
The relative viability was 0.964.

And the relative viability (NCI-H1563; first compound 0.04 µM)?
The relative viability was 0.868.

What about the relative viability (NCI-H1563; first compound 0.1265 µM) of the same compound?
Its relative viability is 0.855.

And the relative viability (NCI-H1563; first compound 0.4 µM)?
Its relative viability is 1.09.

What about the relative viability (NCI-H1563; first compound 1.265 µM) of the same compound?
The relative viability was 0.814.

And the relative viability (NCI-H1563; first compound 4 µM)?
The relative viability was 0.732.

And the relative viability (NCI-H1666; first compound 0.04 µM)?
The relative viability was 0.795.

And the relative viability (NCI-H1666; first compound 0.1265 µM)?
The relative viability was 0.701.

And the relative viability (NCI-H1666; first compound 0.4 µM)?
The relative viability was 0.851.

And the relative viability (NCI-H1666; first compound 1.265 µM)?
Its relative viability is 0.67.

And the relative viability (NCI-H1666; first compound 4 µM)?
Its relative viability is 0.733.

What about the relative viability (NCI-H1975; first compound 0.04 µM) of the same compound?
Its relative viability is 0.407.

What about the relative viability (NCI-H1975; first compound 0.1265 µM) of the same compound?
The relative viability was 0.352.

And the relative viability (NCI-H1975; first compound 0.4 µM)?
The relative viability was 0.422.

And the relative viability (NCI-H1975; first compound 1.265 µM)?
Its relative viability is 0.374.

What about the relative viability (NCI-H1975; first compound 4 µM) of the same compound?
The relative viability was 0.379.

And the relative viability (NCI-H2085; first compound 0.04 µM)?
The relative viability was 1.07.

What about the relative viability (NCI-H2085; first compound 0.1265 µM) of the same compound?
Its relative viability is 0.952.

And the relative viability (NCI-H2085; first compound 0.4 µM)?
The relative viability was 1.08.

What about the relative viability (NCI-H2085; first compound 1.265 µM) of the same compound?
Its relative viability is 0.995.

And the relative viability (NCI-H2085; first compound 4 µM)?
Its relative viability is 0.947.

And the relative viability (NCI-H2126; first compound 0.04 µM)?
The relative viability was 1.06.

What about the relative viability (NCI-H2126; first compound 0.1265 µM) of the same compound?
The relative viability was 1.14.

What about the relative viability (NCI-H2126; first compound 0.4 µM) of the same compound?
The relative viability was 1.17.

What about the relative viability (NCI-H2126; first compound 1.265 µM) of the same compound?
The relative viability was 1.1.

What about the relative viability (NCI-H2126; first compound 4 µM) of the same compound?
The relative viability was 1.13.

And the relative viability (NCI-H23; first compound 0.04 µM)?
Its relative viability is 0.846.

What about the relative viability (NCI-H23; first compound 0.1265 µM) of the same compound?
Its relative viability is 1.03.

What about the relative viability (NCI-H23; first compound 0.4 µM) of the same compound?
Its relative viability is 1.14.

What about the relative viability (NCI-H23; first compound 1.265 µM) of the same compound?
The relative viability was 0.865.

What about the relative viability (NCI-H23; first compound 4 µM) of the same compound?
The relative viability was 1.08.

And the relative viability (NCI-H2405; first compound 0.04 µM)?
The relative viability was 1.

And the relative viability (NCI-H2405; first compound 0.1265 µM)?
The relative viability was 1.03.

And the relative viability (NCI-H2405; first compound 0.4 µM)?
Its relative viability is 0.76.

And the relative viability (NCI-H2405; first compound 1.265 µM)?
The relative viability was 0.957.

What about the relative viability (NCI-H2405; first compound 4 µM) of the same compound?
The relative viability was 0.939.

And the relative viability (NCI-H3122; first compound 0.04 µM)?
The relative viability was 1.01.

What about the relative viability (NCI-H3122; first compound 0.1265 µM) of the same compound?
Its relative viability is 1.06.

What about the relative viability (NCI-H3122; first compound 0.4 µM) of the same compound?
The relative viability was 1.08.

What about the relative viability (NCI-H3122; first compound 1.265 µM) of the same compound?
Its relative viability is 1.07.

And the relative viability (NCI-H3122; first compound 4 µM)?
The relative viability was 1.01.

And the relative viability (RERF-LC-KJ; first compound 0.04 µM)?
The relative viability was 1.05.

And the relative viability (RERF-LC-KJ; first compound 0.1265 µM)?
Its relative viability is 1.1.

What about the relative viability (RERF-LC-KJ; first compound 0.4 µM) of the same compound?
The relative viability was 0.958.

What about the relative viability (RERF-LC-KJ; first compound 1.265 µM) of the same compound?
Its relative viability is 0.904.

What about the relative viability (RERF-LC-KJ; first compound 4 µM) of the same compound?
Its relative viability is 0.969.

And the relative viability (SK-LU-1; first compound 0.04 µM)?
The relative viability was 1.25.

What about the relative viability (SK-LU-1; first compound 0.1265 µM) of the same compound?
Its relative viability is 0.981.

What about the relative viability (SK-LU-1; first compound 1.265 µM) of the same compound?
The relative viability was 1.19.

And the relative viability (SK-LU-1; first compound 4 µM)?
Its relative viability is 1.14.

What about the relative viability (SW 1573; first compound 0.04 µM) of the same compound?
Its relative viability is 1.15.

What about the relative viability (SW 1573; first compound 0.1265 µM) of the same compound?
The relative viability was 0.96.

And the relative viability (SW 1573; first compound 0.4 µM)?
Its relative viability is 1.21.

What about the relative viability (SW 1573; first compound 1.265 µM) of the same compound?
Its relative viability is 0.972.

And the relative viability (SW 1573; first compound 4 µM)?
Its relative viability is 1.09.
